Usually IC50 stands for the concentration that gives 50% inhibition. Lower therefore signals greater potency in that assay.

Results on 15 molecules are retold here after patent publication US7939559B2, “Lipase inhibitors” (Suntory Holdings Limited, priority 2004, dated 2011).

This experiment has as its target T1, porcine pancreatic lipase (Sus scrofa, UniProt P00591).
T1 construct: purchased Sigma
T1 sequence (P00591 1-450): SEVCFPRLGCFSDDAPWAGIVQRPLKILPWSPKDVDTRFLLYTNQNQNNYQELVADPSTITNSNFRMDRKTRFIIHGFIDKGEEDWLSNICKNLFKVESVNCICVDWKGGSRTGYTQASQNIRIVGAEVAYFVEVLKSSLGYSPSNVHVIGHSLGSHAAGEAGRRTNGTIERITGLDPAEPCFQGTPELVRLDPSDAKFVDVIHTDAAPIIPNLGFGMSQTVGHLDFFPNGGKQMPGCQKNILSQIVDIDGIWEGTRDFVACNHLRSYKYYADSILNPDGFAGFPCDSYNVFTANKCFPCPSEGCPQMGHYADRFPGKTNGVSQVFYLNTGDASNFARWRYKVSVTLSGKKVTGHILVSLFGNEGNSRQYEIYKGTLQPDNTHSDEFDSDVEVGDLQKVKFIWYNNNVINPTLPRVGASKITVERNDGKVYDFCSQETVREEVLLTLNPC
The experiment in a line: Lipase inhibitory activity assay (4-MUO fluorescent substrate). The experiment is classed as biochemical. The following applies: for IC50 / lipase inhibitory activity (in words): porcine pancreatic lipase; for IC50: substrate 4-MUO, 25° C., 30 minutes, pH 8.0; for lipase inhibitory activity (in words): 4-MUO, comparison among major tea catechins. As for the experimental part: A lipase activity assay was performed by using the oleate ester of fluorescent 4-methylumbelliferone (4-MUO) as a substrate to measure the fluorescence of 4-methylumbelliferone produced by reaction.
The buffer used for the assay was 13 mM Tris-HCl (pH 8.0) containing 150 mM NaCl, 1.36 mM CaCl2. The enzyme assay was performed using a 0.1 M solution of the substrate 4-MUO (Sigma) in DMSO diluted 1:1000 in said buffer and a solution of porcine pancreatic lipase (Sigma) prepared at 400 U/ml also in said buffer.
An enzymatic reaction was started by adding 25 μl of the lipase/buffer solution after 50 μl of the 4-MUO/buffer solution and 25 μl of distilled water (or an aqueous solution of each sample) were added and mixed in a 96-well microplate at 25° C. After the reaction was performed for 30 minutes, the reaction was stopped by adding 100 μl of a 0.1 M citrate buffer (pH 4.2) and the fluorescence of 4-methylumbelliferone produced by the reaction (excitation 355 nm, emission 460 nm) was measured using a fluorescence plate reader (Fluoroskan Asent CF from Labsystems).
The inhibitory activity of each test sample was determined as IC50(μM), i.e. the amount of the sample giving 50% inhibition of the activity of the control (distilled water).

“Also recorded” adds a separate entry of the source.

`O=C(Oc1cc(O)cc2c1C[C@H](OC(=O)c1cc(O)c(O)c(O)c1)[C@@H](c1cc(O)c(O)c(O)c1)O2)c1cc(O)c(O)c(O)c1` [compound 13, (−)-gallocatechin 3,5-di-O-gallate] had an IC50 of 213 nM. In addition, the “lipase inhibitory activity relative to GCG (12)” value (fold higher activity than (−)-gallocatechin 3-O-gallate) is given as “about twice higher”.
As to `O=C(O[C@@H]1Cc2c(O)cc(O)cc2O[C@H]1c1ccc(O)c(O)c1)c1cc(O)c(O)c(O)c1` [compound 10, (−)-catechin 3-O-gallate], the “lipase inhibitory activity (in words)” value is “showed lipase inhibitory activity” and the IC50 was 543 nM.
For the molecule `O=C(Oc1cc(O)cc2c1C[C@@H](OC(=O)c1cc(O)c(O)c(O)c1)[C@@H](c1cc(O)c(O)c(O)c1)O2)c1cc(O)c(O)c(O)c1` [compound 7, (−)-epigallocatechin 3,5-di-O-gallate], inhibition was half-maximal at 98 nM (IC50). For the same molecule, the “lipase inhibitory activity relative to EGCG (6)” value (fold higher activity than (−)-epigallocatechin 3-O-gallate) was “about 3.5 times”.
Consider `Oc1cc(O)c2c(c1)O[C@H](c1ccc(O)c(O)c1)[C@@H](O)C2` [compound 9, (+)-catechin], for which the “lipase inhibitory activity (in words)” value is “did not show lipase inhibitory activity” and the IC50 is above 20000 nM.
`Oc1cc(O)c2c(c1)O[C@H](c1cc(O)c(O)c(O)c1)[C@H](O)C2` [compound 5, (−)-epigallocatechin] had a half-maximal inhibitory concentration (IC50) above 20000 nM.
`O=C(/C=C/c1ccc(O)cc1)O[C@@H]1Cc2c(O)cc(O)cc2O[C@@H]1c1cc(O)c(O)c(O)c1` [compound 8, (−)-epigallocatechin 3-O-p-coumaroate] gave an IC50 of 885 nM.
For the molecule `Oc1cc(O)c2c(c1)O[C@H](c1ccc(O)c(O)c1)[C@H](O)C2` [compound 2, (−)-epicatechin], the concentration for half-maximal inhibition (IC50) was above 20000 nM.
On to “(−)-epiafzelechin 3-O-gallate [compound 1]”, for which the IC50 came to 2580 nM.
Still for that read-out and setting: in the case of `Oc1cc(O)c2c(c1)O[C@H](c1cc(O)c(O)c(O)c1)[C@@H](O)C2` [compound 11, (+)-gallocatechin] it was above 20000 nM; in that of `COc1cc(C(=O)O[C@@H]2Cc3c(O)cc(O)cc3O[C@@H]2c2ccc(O)c(O)c2)cc(O)c1O` [compound 4, (−)-epicatechin 3-O-(3′-O-methyl-gallate)], 680 nM.
The molecule `O=C1O[C@H]([C@@H](O)CO)C2(O)Oc3cc(O)c4c(c3C12O)O[C@H](c1cc(O)c(O)c(O)c1)[C@H](O)C4` (stereo partly drawn) [compound 14, 8-C-ascorbyl(−)-epigallocatechin] showed a 50% inhibitory concentration (IC50) of 646 nM.
On to “(−)-epicatechin 3-O-gallate [compound 3]”, for which the “lipase inhibitory activity (in words)” value is recorded as “showed lipase inhibitory activity” and 452 nM corresponded to half-maximal inhibition (IC50).
With `O=C(O[C@@H]1Cc2c(O)cc(O)cc2O[C@H]1c1cc(O)c(O)c(O)c1)c1cc(O)c(O)c(O)c1` [compound 12, (−)-gallocatechin 3-O-gallate], the “lipase inhibitory activity (in words)” value was “showed lipase inhibitory activity” and the 50% inhibitory concentration (IC50) was 437 nM.
For the molecule `O=C(O[C@@H]1Cc2c(O)cc(O)cc2O[C@@H]1c1cc(O)c(O)c(O)c1)c1cc(O)c(O)c(O)c1` [compound 6, (−)-epigallocatechin 3-O-gallate], the “lipase inhibitory activity (in words)” value is listed as “showed lipase inhibitory activity; also recorded: showed the strongest activity among these catechins” and the midpoint of inhibition, the IC50, lay at 349 nM.
For the molecule `O=C(O[C@@H]1Cc2c(O)cc3c(c2O[C@@H]1c1cc(O)c(O)c(O)c1)C1(O)C(=O)O[C@H]([C@@H](O)CO)C1(O)O3)c1cc(O)c(O)c(O)c1` (stereo partly drawn) [compound 15, 8-C-ascorbyl(−)-epigallocatechin 3-O-gallate], inhibition was half-maximal at 791 nM (IC50).
